Test results: ChEMBL document CHEMBL1142713, “From 4,5,6,7-tetrahydro-5-methylimidazo[4,5,1-jk](1,4)benzodiazepin-2(1H)-one (TIBO) to etravirine (TMC125): fifteen years of research on non-nucleoside inhibitors of HIV-1 reverse transcriptase” (J Med Chem, 2005)

Tests used:
[1] = tested on: MT4; assay: Effective concentration of the compound to inhibit HIV-1 mutant K103N+Y181C replication in HIV-infected MT-4 cells; assay type: functional, cell-based, Homo sapiens
[2] = tested on: MT4; assay: Effective concentration of the compound to inhibit […] replication in HIV-infected MT-4 cells; assay type: functional, cell-based; conditions: Homo sapiens
[3] = tested on: MT4; assay: Effective concentration of the compound to inhibit HIV-1 mutant K103N replication in HIV-infected MT-4 cells; assay type: functional, cell-based, Homo sapiens
[4] = tested on: MT4; assay: Effective concentration of the compound to inhibit HIV-1 mutant L100I replication in HIV-infected MT-4 cells; assay type: functional, cell-based, Homo sapiens
[5] = tested on: MT4; assay: Effective concentration of the compound to inhibit HIV-1 mutant Y181C replication in HIV-infected MT-4 cells; assay type: functional, cell-based, Homo sapiens
[6] = tested on: MT4; assay: Effective concentration of the compound to inhibit HIV-1 mutant Y188L replication in HIV-infected MT-4 cells; assay type: functional, cell-based, Homo sapiens
[7] = tested on: MT4; assay: Effective concentration of the compound to inhibit HIV-1 mutant L100I+K103N replication in HIV-infected MT-4 cells; assay type: functional, cell-based, Homo sapiens
[8] = tested on: MT4; assay: Effective concentration of the compound to inhibit HIV-1 replication in HIV-infected MT-4 cells; assay type: functional, cell-based; conditions: Homo sapiens

SMILES	EC50 [1] [nM]	EC50 [2] [nM]	EC50 [3] [nM]	EC50 [4] [nM]	EC50 [5] [nM]	EC50 [6] [nM]	EC50 [7] [nM]	EC50 [8] [nM]
Cc1ccnc2c1NC(=O)c1cccnc1N2C1CC1 [NEVIRAPINE]	> 10000	32	6310	320	10000	> 100000		
N#Cc1ccc(Nc2nc(N)nc(Cc3c(Cl)cccc3Cl)n2)cc1		6	40	400	200	320		
Cc1cc(C)c(Oc2ccnc(Nc3ccc(C#N)cc3)n2)c(C)c1	1100	3	3	22	38	55	8200	
N#Cc1ccc(Nc2nc(N)cc(Cc3c(Cl)cccc3Cl)n2)cc1		1	12	300	180	71		
Cc1cc(C)c(Nc2ccnc(Nc3ccc(C#N)cc3)n2)c(C)c1 [DAPIVIRINE]	44	1	4	18	8	48	> 10000	
CC(C)Nc1cccnc1N1CCN(C(=O)c2cc3cc(NS(C)(=O)=O)ccc3[nH]2)CC1 [DELAVIRDINE]	> 10000	63	2500	2500	2000	1300		
Cc1cc(C#N)cc(C)c1Nc1ccnc(Nc2ccc(C#N)cc2)n1	37	0.4	2	34	7	8	1100	
COc1ccccc1NC(C(N)=O)c1c(Cl)cccc1Cl (stereo unspecified)								610
NC(=O)C(NC(=O)c1ccccc1[N+](=O)[O-])c1c(Cl)cccc1Cl (stereo unspecified)								> 50000
Cc1cc(C#N)cc(C)c1Oc1ccnc(Nc2ccc(C#N)cc2)n1	94	1	3	73	37	19	800	
NC(=O)C(Nc1ccc(Cl)cc1)c1c(Cl)cccc1Cl (stereo unspecified)								> 50000
CC(C)=CCN1Cc2cc(Cl)cc3[nH]c(=S)n(c23)C[C@@H]1C								33
NC(=O)C(NC(=O)Nc1ccccc1[N+](=O)[O-])c1c(Cl)cccc1Cl (stereo unspecified)								> 50000
N#Cc1ccc(Nc2cc(N)nc(Cc3c(Cl)cccc3Cl)n2)cc1		450	> 10000	> 10000	> 10000	> 10000		
C=CCN1Cc2cccc3[nH]c(=O)n(c23)CC1C (stereo unspecified)								62000
Cc1cc(C)c(Nc2nc(Nc3ccc(C#N)cc3)ncc2Br)c(C)c1	280	6	7	11	36	27	350	

SMILES	EC50 [1] [nM]	EC50 [2] [nM]	EC50 [3] [nM]	EC50 [4] [nM]	EC50 [5] [nM]	EC50 [6] [nM]	EC50 [7] [nM]	EC50 [8] [nM]
NC(=O)C(Nc1ccccc1Cl)c1c(Cl)cccc1Cl (stereo unspecified)								400
NC(=O)C(/N=C(\S)Nc1ccccc1Cl)c1c(Cl)cccc1Cl (stereo unspecified)								> 50000
N#Cc1ccc(Nc2nc(Cc3c(Cl)cccc3Cl)ns2)cc1								> 1000
NC(=O)C(/N=C(\S)Nc1ccc(Cl)cc1)c1c(Cl)cccc1Cl (stereo unspecified)								160
NC(=O)C(NCc1ccccc1[N+](=O)[O-])c1c(Cl)cccc1Cl (stereo unspecified)								> 50000
NC(=O)C(Nc1ccccc1[N+](=O)[O-])c1c(Cl)cccc1Cl (stereo unspecified)								100
Cc1cc(C#N)cc(C)c1Nc1ncnc(Nc2ccc(C#N)cc2)n1		1	8	250	50	50	> 10000	
Cc1cc(C#N)cc(C)c1Nc1nc(Nc2ccc(C#N)cc2)ncc1Br	32	0.4	0.4	7	10	3	37	
N#Cc1ccc(Nc2cc(Cc3c(Cl)cccc3Cl)nc(N)n2)cc1		10	> 10000	> 10000	> 10000	> 10000		
Cc1cc(C)c(Oc2ncnc(Nc3ccc(C#N)cc3)n2)c(C)c1	130	0.6	3	20	20	63	2500	
CC(=O)c1ccc(C)cc1NC(C(N)=O)c1c(Cl)cccc1Cl (stereo unspecified) [LOVIRIDE]		13	1300	50	16000	50000		
N#Cc1ccc(NC(=S)NC(=N)Cc2c(Cl)cccc2Cl)cc1		3	590	510	510	320		
CC(C)=CCN1Cc2c(Cl)ccc3[nH]c(=S)n(c23)C[C@@H]1C [TIVIRAPINE]								4.6
O=C1Nc2ccc(Cl)cc2[C@@](C#CC2CC2)(C(F)(F)F)O1 [EFAVIRENZ]	40	1	40	40	2	160	> 10000	
Cc1cc(C#N)cc(C)c1Oc1nc(Nc2ccc(C#N)cc2)ncc1Br	25	1	1	7	22	6	49	
Cc1cc(C#N)cc(C)c1Oc1nc(Nc2ccc(C#N)cc2)nc(N)c1Br [ETRAVIRINE]	4	1	1	3	7	5	19	
